For series [1], the target named is T1, P2X purinoceptor 3 (Homo sapiens) (UniProt P56373).
T1 sequence (whole entry): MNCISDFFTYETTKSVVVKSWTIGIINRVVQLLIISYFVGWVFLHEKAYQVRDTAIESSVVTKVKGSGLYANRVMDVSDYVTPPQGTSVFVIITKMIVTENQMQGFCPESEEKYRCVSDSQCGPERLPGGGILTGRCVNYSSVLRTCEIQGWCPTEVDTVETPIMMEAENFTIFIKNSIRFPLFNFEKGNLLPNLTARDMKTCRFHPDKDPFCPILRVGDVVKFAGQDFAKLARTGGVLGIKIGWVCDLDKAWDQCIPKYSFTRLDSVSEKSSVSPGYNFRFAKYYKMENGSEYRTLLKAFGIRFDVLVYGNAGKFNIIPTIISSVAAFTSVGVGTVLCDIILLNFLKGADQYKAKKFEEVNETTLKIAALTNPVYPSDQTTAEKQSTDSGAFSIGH
In words: Antagonist activity at recombinant human P2X3 receptor expressed in Flp-In-293 cells assessed as inhibition of alphabeta-meATP-induced calcium flux preincubated for 10 mins followed by alphabeta-meATP addition measured at 5 sec intervals by Fluo-4 dye based FLIPR assay. In kind it is cell-based. For orientation: Calcium assays in cells follow changes in intracellular calcium, usually with a dye or a luminescent sensor.

Series [2] is described as follows: Intrinsic clearance in rat. The format is ADME, organism-based. Particulars: in vivo.
The nature of series [3]: Protein binding in rat plasma. In kind it is ADME, cell-free. Particulars: read-out: PPB (converted).
Series [4] is described as follows: Half life in rat. The format is ADME, organism-based. Particulars: in vivo.
Series [5] concerns the target T2, Nuclear receptor subfamily 1 group I member 2 (Homo sapiens, UniProt O75469).
T2 sequence (O75469 whole entry): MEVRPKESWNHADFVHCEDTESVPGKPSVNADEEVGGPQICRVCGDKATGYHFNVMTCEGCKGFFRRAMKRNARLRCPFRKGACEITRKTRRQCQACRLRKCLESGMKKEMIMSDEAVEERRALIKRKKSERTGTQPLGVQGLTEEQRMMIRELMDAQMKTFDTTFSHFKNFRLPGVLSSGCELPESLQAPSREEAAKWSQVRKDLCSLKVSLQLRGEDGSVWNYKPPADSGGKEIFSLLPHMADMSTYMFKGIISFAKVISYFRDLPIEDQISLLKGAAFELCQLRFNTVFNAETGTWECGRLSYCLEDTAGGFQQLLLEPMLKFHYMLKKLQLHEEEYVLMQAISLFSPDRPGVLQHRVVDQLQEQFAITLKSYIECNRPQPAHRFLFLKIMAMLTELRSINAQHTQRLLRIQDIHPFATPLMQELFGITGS
In words: Activation of PXR (unknown origin). In kind it is ADME.

The nature of series [6]: Intrinsic clearance in dog. The format is ADME, organism-based, Canis lupus familiaris. Particulars: in vivo.
A short description of series [7]: Protein binding in dog plasma. In kind it is ADME, cell-free, Canis lupus familiaris. Particulars: read-out: PPB (converted).
Series [8] can be described thus: Oral bioavailability in rat. In kind it is ADME, organism-based. Particulars: in vivo.
Series [9] can be described thus: Half life in dog. In kind it is ADME, organism-based, Canis lupus familiaris. Particulars: in vivo.
In series [10] the target is T3, UDP-glucuronosyltransferase 1A1 (Homo sapiens, UniProt P22309).
T3 sequence (P22309 whole entry): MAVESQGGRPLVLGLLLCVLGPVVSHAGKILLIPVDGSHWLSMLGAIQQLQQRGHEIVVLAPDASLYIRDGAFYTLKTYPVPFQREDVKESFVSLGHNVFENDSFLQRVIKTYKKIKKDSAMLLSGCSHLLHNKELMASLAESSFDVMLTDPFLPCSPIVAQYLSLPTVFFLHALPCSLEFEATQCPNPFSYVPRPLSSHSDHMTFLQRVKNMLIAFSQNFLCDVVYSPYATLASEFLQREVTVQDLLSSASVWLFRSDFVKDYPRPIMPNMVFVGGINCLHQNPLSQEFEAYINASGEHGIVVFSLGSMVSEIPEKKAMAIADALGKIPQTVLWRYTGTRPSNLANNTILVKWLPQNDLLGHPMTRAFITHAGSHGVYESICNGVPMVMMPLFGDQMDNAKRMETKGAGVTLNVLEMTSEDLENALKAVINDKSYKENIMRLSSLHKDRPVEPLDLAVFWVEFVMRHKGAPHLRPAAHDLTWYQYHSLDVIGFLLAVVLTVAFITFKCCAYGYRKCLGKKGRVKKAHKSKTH
The series is described as follows: Inhibition of UGT1A1 in human liver microsomes assessed as decrease in estradiol-3 glucuronidation. The format is ADME. (In general: Microsomes from liver hold many membrane-bound enzymes, among them those of drug oxidation.)

In a further series the test system is Rattus norvegicus. The series is described as follows: Antinociceptive activity in complete freund's adjuvant induced mechanical hypersensitivity Sprague-Dawley rat model assessed as reversal of mechanical hyperalgesia by measuring hind paw withdrawal thresholds at 60 mg/kg, po. The format is functional.
A short description of series [11]: Oral bioavailability in dog. In kind it is ADME, organism-based, Canis lupus familiaris. Particulars: in vivo.
For a further series, the target named is T4, P2X purinoceptor 3 (Homo sapiens, UniProt P56373).
T4 sequence (P56373 whole entry): T1 sequence (whole entry)
In words: Antagonist activity at recombinant human P2X3 receptor expressed in Flp-In-293 cells assessed as inhibition of CTP-induced […] current response preincubated for 2 mins followed by CTP addition along with test compound by whole cell patch-clamp method. In kind it is cell-based. (In patch-clamp work, channel activity is measured electrically.)

Another series deals with Cytochrome P450 2C9 (Homo sapiens, UniProt P11712). In words: Inhibition of CYP2C9 (unknown origin). In kind it is ADME.
Cytochrome P450 2C9, sequence (P11712 whole entry): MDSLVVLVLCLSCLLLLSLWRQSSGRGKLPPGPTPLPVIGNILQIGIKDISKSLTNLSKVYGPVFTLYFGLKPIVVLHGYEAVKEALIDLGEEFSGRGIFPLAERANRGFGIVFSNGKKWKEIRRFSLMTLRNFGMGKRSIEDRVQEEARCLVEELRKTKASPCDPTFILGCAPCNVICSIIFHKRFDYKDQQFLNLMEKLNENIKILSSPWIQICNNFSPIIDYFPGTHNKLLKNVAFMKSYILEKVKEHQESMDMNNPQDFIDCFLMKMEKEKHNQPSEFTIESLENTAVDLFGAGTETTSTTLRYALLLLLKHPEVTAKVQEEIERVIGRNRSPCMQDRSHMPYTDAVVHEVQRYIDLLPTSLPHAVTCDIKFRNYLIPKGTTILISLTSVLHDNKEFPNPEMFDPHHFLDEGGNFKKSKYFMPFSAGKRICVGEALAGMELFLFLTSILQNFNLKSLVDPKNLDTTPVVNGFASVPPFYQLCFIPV
Series [12] addresses T3, UDP-glucuronosyltransferase 1A1. The series is described as follows: Inhibition of human UGT1A1 expressed in baculovirus infected insect cells using bilirubin as substrate measured after 10 mins by HPLC analysis. The format is ADME.
Another series addresses T5, PXR (Homo sapiens, UniProt O75469).
T5 sequence (O75469 whole entry): T2 sequence (O75469 whole entry)
The series is described as follows: Activation of PXR (unknown origin) at 10 uM relative to control. The format is ADME. Particulars: read-out: Activity.

Series [13] in a line: Oral bioavailability in rhesus monkey. Particulars: in vivo. In kind it is ADME, organism-based, Macaca mulatta.

Usually IC50 stands for the midpoint of a concentration-inhibition curve. In the case of `Cc1ccc(-c2cc(C(=O)N[C@H](C)c3nnc[nH]3)cc(-c3ncccc3F)c2)nc1`, in [1], the IC50 is 284 nM.
As usually defined, the CLint scaled is a measure of how fast metabolising enzymes remove a compound, apart from limits set by blood flow. `Cc1ccc(-c2cc(C(=O)N[C@H](C)c3ccc(F)cn3)cc(-n3nccn3)c2)nc1` had an intrinsic metabolic clearance (CLint scaled) in [2] of 3910 mL/min/kg. Also, the half-inhibitory concentration (IC50) in series [1] amounted to 37 nM. The fraction unbound in series [3] was 0.026.
One may read the half-life as the time needed for the level to fall by half in the phase considered. For `Cc1ccc(-c2cc(C(=O)N[C@H](C)c3ccc(C(F)(F)F)[n+]([O-])c3)cc(C(C)(C)O)c2)cc1`, in series [2], the intrinsic clearance (CLint scaled) is 6790 mL/min/kg. The IC50 in series [1] was found to be 20 nM. Moreover, the half-life in series [4] is 0.2 h. Also, in series [3], the fraction unbound was 0.046.
As a reminder, the EC50 is the concentration that produces a half-maximal response. For orientation: bioavailability means the share of a dose that reaches the circulation, judged against a reference dose that is usually intravenous. One may read the EC90 as the concentration needed for an effect of 90%. Take `C[C@@H](NC(=O)c1cc(-c2ccc(Cl)cn2)cc(C(C)(C)O)c1)c1ccc(C(F)(F)F)[n+]([O-])c1`: the EC50 in [5] is > 30000 nM. The CLint scaled in [6] came to 7.7 mL/min/kg; in series [2], 69 mL/min/kg. The results for the fraction unbound in series [7] and in series [3] were 0.263 and 0.238, respectively. In addition, the bioavailability in series [8] is 13%; in series [11], 63%. The half-life in series [9] is 3.9 h; in series [4] it was 1.3 h. Moreover, the IC50 was > 20000 nM in series [10], 14 nM in series [1], 18 nM on P2X purinoceptor 3 and 82000 nM against Cytochrome P450 2C9. Moreover, the 90% effect concentration (EC90) with Rattus norvegicus is listed as 160 nM.
Molecule `Cc1ccc(-c2cc(C(=O)N[C@H](C)c3ccc(C(F)(F)F)nc3)cc(C(C)(C)O)c2)nc1` registered an EC50 in series [5] of 18000 nM. For the same molecule, the figures for the IC50 (in [1]; at Cytochrome P450 2C9) were 14 nM and 19000 nM, respectively. Besides, in [3], the fraction unbound is 0.048.
Consider `Cc1ccc(-c2cc(C(=O)NCc3nc(C(C)C)no3)cc(-c3ncccc3F)c2)nc1`, for which the half-maximal inhibitory concentration (IC50) in [1] was 155 nM.
Turning to `Cc1ccc(-c2cc(C(=O)N[C@H](C)c3ccc(F)cn3)cc(C(C)(C)O)c2)nc1`, in [5], the half-maximal effective concentration (EC50) came out at 2000 nM. Moreover, the concentration for half-maximal inhibition (IC50) in [1] was 67 nM. Moreover, in [3], the fraction unbound is 0.18.
With `Cc1ccc(-c2cc(C(=O)NCCc3nc(C)no3)cc(-c3ncccc3F)c2)nc1`, in [1], the IC50 was 45 nM.
As for `Cc1ccc(-c2cc(C(=O)N[C@H](C)c3ccc(F)cn3)cc(C3=NO[C@H](c4ccccn4)C3)c2)nc1`, the results for the bioavailability in [8], in series [11] and in series [13] were 60%, 68% and 47%, respectively. This molecule returned an intrinsic metabolic clearance (CLint scaled) in series [2] of 133 mL/min/kg. Also, the IC50 in series [1] stood at 21 nM; in series [12], 1000 nM; on P2X purinoceptor 3, 24 nM; against Cytochrome P450 2C9 it was 5700 nM. Also, the half-life in [4] was 1 h. The fraction unbound in [3] is 0.016. Also, the EC90 in the series on Rattus norvegicus worked out at 3000 nM. Further, the activity at 10 µM at PXR worked out at 47%.
In the case of `Cc1ccc(-c2cc(C(=O)N[C@H](C)c3nc(C)no3)cc(-c3ncccc3F)c2)nc1`, in series [1], the IC50 came to 3 nM. Further, in series [3], the fraction unbound is 0.004.
On to `Cc1ccc(-c2cc(C(=O)N[C@H](C)c3ccc(F)cn3)cc(N3CCOCC3)c2)nc1`, for which the concentration for a half-maximal effect (EC50) in [5] was > 30000 nM. In series [2], this molecule gave a CLint scaled of 533 mL/min/kg. In addition, the half-inhibitory concentration (IC50) in series [1] was found to be 47 nM. The fraction unbound in series [3] is 0.149.
Take `Cc1ccc(-c2cc(C(=O)N[C@H](C)c3ccc(F)c[n+]3[O-])cc(-c3ncccc3F)c2)nc1`: the half-inhibitory concentration (IC50) in series [1] came out at 2 nM. In addition, the fraction unbound in series [3] was 0.096.
The molecule `Cc1ccc(-c2cc(C(=O)N[C@H](C)c3ccc(F)cn3)cc(-c3ncccc3F)c2)nc1` came in with a concentration for a half-maximal effect (EC50) in series [5] of 6000 nM. In series [2], the CLint scaled is 24800 mL/min/kg. Besides, the concentration for half-maximal inhibition (IC50) in series [1] was 8 nM. For the same molecule, in series [3], the fraction unbound is 0.008.
As to `Cc1ccc(-c2cc(C(=O)N[C@@H](C)c3nnc[nH]3)cc(-c3ncccc3F)c2)nc1`, the IC50 in series [1] is 10 nM. The fraction unbound in series [3] is 0.012.
`C[C@@H](NC(=O)c1cc(-c2ccc(F)cn2)cc(C(C)(C)O)c1)c1ccc(C(F)(F)F)[n+]([O-])c1`: the CLint scaled in series [2] is 477 mL/min/kg. Besides, the half-inhibitory concentration (IC50) in [1] turned out to be 82 nM. In addition, the half-life in [4] is 0.48 h. Besides, the fraction unbound in series [3] is 0.447.
In the case of `Cc1ccc(-c2cc(C(=O)N[C@@H](c3nc(C)no3)C3CC3)cc(-c3ncccc3F)c2)nc1`, the concentration for half-maximal inhibition (IC50) in series [1] amounted to 30 nM.
For `Cc1ccc(-c2cc(C(=O)N[C@H](C)c3ccc(C(F)(F)F)[n+]([O-])c3)cc(C(C)(C)O)c2)nc1`, in series [5], the EC50 was > 30000 nM. The IC50 was 5 nM in series [1] and > 50000 nM on Cytochrome P450 2C9. Further, the fraction unbound in series [3] is 0.376.
`Cc1ccc(-c2cc(C(=O)N[C@H](C)c3ccc(C(F)(F)F)nc3)cc(-c3ncccc3F)c2)nc1`: the concentration for half-maximal inhibition (IC50) in [1] was found to be 8 nM. In series [3], the fraction unbound is 0.014.
As to `Cc1ccc(-c2cc(C(=O)NC3(c4nc(C)no4)CC3)cc(-c3ncccc3F)c2)nc1`, the IC50 in series [1] amounted to 170 nM.
For the molecule `Cc1ccc(-c2cc(C(=O)N[C@H](C)c3ccc(C(F)(F)F)[n+]([O-])c3)cc(-c3ncccc3F)c2)nc1`, the IC50 in series [1] was 5 nM. The fraction unbound in [3] was 0.048.
Regarding `Cc1ccc(-c2cc(C(=O)N[C@@H](C)c3nc(C)no3)cc(-c3ncccc3F)c2)nc1`, the 50% inhibitory concentration (IC50) in [1] was found to be 17 nM.
In series [2], `C[C@@H](NC(=O)c1cc(-c2ccc(Cl)cc2)cc(C(C)(C)O)c1)c1ccc(C(F)(F)F)[n+]([O-])c1` displayed a CLint scaled of 214 mL/min/kg. The IC50 in series [1] is 21 nM. The same molecule gave a half-life in [4] of 2.4 h. Moreover, in [3], the fraction unbound is 0.026.

These data come from ChEMBL document CHEMBL4219153, “Identification of second-generation P2X3 antagonists for treatment of pain” (Bioorg Med Chem Lett, 2018).
